This passage reports GI50 and IC50 results from patent US12534457B2, “Heteroaryl derivative compounds, and uses thereof” (Voronoi Inc., priority 2021, dated 2026).

Test [1] has as its system Ba/F3 cells expressing EGFR Del19/C797S (EGFR DC). The test can be described thus: Proliferation inhibitory activity, Ba/F3 cells expressing EGFR Del19/C797S (CellTiter-Glo). The conditions noted are these: Mus musculus, BaF3, 72 hours of compound treatment. Type of test: cell-based. In outline:
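Viability after 72 h of compound exposure was measured by luminescence (CellTiter-Glo) in Ba/F3 lines transduced with mutant EGFR. Final concentrations spanned 0.2 nM–5 μM over 12 threefold steps. Growth relative to untreated control gave GI50 values; each test was run three times.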

Test [2] relates to Ba/F3 cells expressing EGFR L858R/C797S (EGFR LC). The test can be described thus: Proliferation inhibitory activity, Ba/F3 cells expressing EGFR L858R/C797S (CellTiter-Glo). As to conditions: Mus musculus, BaF3, 72 hours of compound treatment. Type of test: cell-based. As for the experimental part: (§1) The following experiments were performed to evaluate the inhibitory activity of the compounds according to the present disclosure on Ba/F3 proliferation expressing EGFR C797S, L861Q, G719A, S768I, L718Q, and/or G724S mutations.
(§2) For Ba/F3 cells, RPMI-1640 containing 10% FBS and 5 ng/ml IL-3 (R&D Systems) was used. Transduced Ba/F3 cells were cultured after adding 1 μg/ml puromycin (Invitrogen) to the same medium.
(§3) At 24 hours before treatment with the compounds, 3000 to 5000 cells were aliquoted into each well of a white clear bottom 96 well plate (Corning). The compounds were diluted in dimethyl sulfoxide (3 times dilution, 12 concentrations in total), and injected in an amount of 1 μl so that the final concentration was 0.2 nM to 5 uM. For measurement of living cells, after 72 hours of compound treatment, the cells were stored at room temperature for 10 min using CellTiter-Glo luminescentcell-viability reagent (Promega), and then luminescence intensity was measured using a reader (SynergyNeo, Biotek). Each test was repeated three times. Result values were calculated as the cell growth rate (%) compared to the control. The graphs were created using GraphPad Prism version 8.3.0 program and the GI50 values were calculated.

For test [3], the system named is Ba/F3 G719A (EGFR mutation). The test can be described thus: Proliferation inhibitory activity, Ba/F3 cells expressing EGFR G719A. Type of test: cell-based. As to conditions: Mus musculus, BaF3, 72 hours, CellTiter-Glo. As for the experimental part:
as §1, §2, §3

The test system of test [4] is Ba/F3 L861Q (EGFR mutation). The test can be described thus: Proliferation inhibitory activity, Ba/F3 cells expressing EGFR L861Q. It is filed as cell-based. As to conditions: Mus musculus, BaF3, 72 hours, CellTiter-Glo. As for the experimental part: as §1, §2, §3
The test system of test [5] is Ba/F3 S768I (EGFR mutation). The test can be described thus: Proliferation inhibitory activity, Ba/F3 cells expressing EGFR S768I. Type of test: cell-based. As to conditions: Mus musculus, BaF3, 72 hours, CellTiter-Glo. The method, then:
as §1, §2, §3

The test system of test [6] is Ba/F3 L718Q (EGFR mutation). The experiment in a line: Proliferation inhibitory activity, Ba/F3 cells expressing EGFR L718Q. It is filed as cell-based. The conditions noted are these: Mus musculus, BaF3, 72 hours, CellTiter-Glo. As for the experimental part: as §1, §2, §3
Test [7] relates to Ba/F3 G724S (EGFR mutation). The experiment in a line: Proliferation inhibitory activity, Ba/F3 cells expressing EGFR G724S. Type of test: cell-based. The conditions noted are these: Mus musculus, BaF3, 72 hours, CellTiter-Glo. The method, then: as §1, §2, §3
For another test, the target named is T1, EGFR (d746-750) (Homo sapiens, UniProt P00533, DEL746-750).
T1 construct: purchased Reaction Biology
The experiment in a line: EGFR-family mutant enzyme activity (Reaction Biology). It is filed as biochemical.

The next test concerns the target T2, EGFR (d746-750/C797A) (Homo sapiens, UniProt P00533, C797A/DEL746-750).
T2 construct: purchased Reaction Biology
Described as above. Type of test: biochemical.

For a further test, the target named is T3, EGFR (d746-750/C797S) (Homo sapiens, UniProt P00533, C797S/DEL746-750).
T3 construct: purchased Reaction Biology
The test is described as above. Type of test: biochemical.

The target in test [8] is T4, EGFR (d746-750/T790M/C797S) (Homo sapiens, UniProt P00533, C797S/DEL746-750/T790M).
T4 construct: purchased Reaction Biology
T4 sequence (P00533 with tags, fused parts or gaps DEL746-750/T790M/C797S limits assumed): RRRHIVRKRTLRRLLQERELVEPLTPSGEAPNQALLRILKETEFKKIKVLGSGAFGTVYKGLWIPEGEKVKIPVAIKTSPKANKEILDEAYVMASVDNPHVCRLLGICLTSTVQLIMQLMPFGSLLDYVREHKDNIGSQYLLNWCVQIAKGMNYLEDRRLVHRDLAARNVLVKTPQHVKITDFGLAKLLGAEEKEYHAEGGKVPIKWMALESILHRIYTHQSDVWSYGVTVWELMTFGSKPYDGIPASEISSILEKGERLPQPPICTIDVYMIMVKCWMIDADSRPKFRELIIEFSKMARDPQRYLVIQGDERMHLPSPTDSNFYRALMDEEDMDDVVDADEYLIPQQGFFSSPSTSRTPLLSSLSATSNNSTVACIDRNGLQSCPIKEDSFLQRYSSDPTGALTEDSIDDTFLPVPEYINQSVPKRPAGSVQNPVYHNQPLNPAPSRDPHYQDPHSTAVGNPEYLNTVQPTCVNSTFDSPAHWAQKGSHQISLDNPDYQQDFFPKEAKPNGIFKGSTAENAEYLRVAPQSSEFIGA
The test is described as above. Type of test: biochemical.

Another test addresses T5, EGFR (D761Y) (Homo sapiens, UniProt P00533, D761Y).
T5 construct: purchased Reaction Biology
The test is described as above. Type of test: biochemical.

The target in a further test is T6, EGFR (G719C) (Homo sapiens, UniProt P00533, G719C).
T6 construct: purchased Reaction Biology
The description is as above. Type of test: biochemical.

The next test addresses T7, EGFR (G719D) (Homo sapiens, UniProt P00533, G719D).
T7 construct: purchased Reaction Biology
Described as above. Type of test: biochemical.

The next test has as its target T8, EGFR (G719S) (Homo sapiens, UniProt P00533, G719S).
T8 construct: purchased Reaction Biology
The test is described as above. Type of test: biochemical.

A further test concerns the target T9, EGFR (L718Q) (Homo sapiens, UniProt P00533, L718Q).
T9 construct: purchased Reaction Biology
The test is described as above. Type of test: biochemical.

Another test addresses T10, EGFR (L747S) (Homo sapiens, UniProt P00533, L747S).
T10 construct: purchased Reaction Biology
The description is as above. Type of test: biochemical.

In the next test the target is T11, EGFR (L792F) (Homo sapiens, UniProt P00533, L792F).
T11 construct: purchased Reaction Biology
T11 sequence (P00533 25-1210 L792F): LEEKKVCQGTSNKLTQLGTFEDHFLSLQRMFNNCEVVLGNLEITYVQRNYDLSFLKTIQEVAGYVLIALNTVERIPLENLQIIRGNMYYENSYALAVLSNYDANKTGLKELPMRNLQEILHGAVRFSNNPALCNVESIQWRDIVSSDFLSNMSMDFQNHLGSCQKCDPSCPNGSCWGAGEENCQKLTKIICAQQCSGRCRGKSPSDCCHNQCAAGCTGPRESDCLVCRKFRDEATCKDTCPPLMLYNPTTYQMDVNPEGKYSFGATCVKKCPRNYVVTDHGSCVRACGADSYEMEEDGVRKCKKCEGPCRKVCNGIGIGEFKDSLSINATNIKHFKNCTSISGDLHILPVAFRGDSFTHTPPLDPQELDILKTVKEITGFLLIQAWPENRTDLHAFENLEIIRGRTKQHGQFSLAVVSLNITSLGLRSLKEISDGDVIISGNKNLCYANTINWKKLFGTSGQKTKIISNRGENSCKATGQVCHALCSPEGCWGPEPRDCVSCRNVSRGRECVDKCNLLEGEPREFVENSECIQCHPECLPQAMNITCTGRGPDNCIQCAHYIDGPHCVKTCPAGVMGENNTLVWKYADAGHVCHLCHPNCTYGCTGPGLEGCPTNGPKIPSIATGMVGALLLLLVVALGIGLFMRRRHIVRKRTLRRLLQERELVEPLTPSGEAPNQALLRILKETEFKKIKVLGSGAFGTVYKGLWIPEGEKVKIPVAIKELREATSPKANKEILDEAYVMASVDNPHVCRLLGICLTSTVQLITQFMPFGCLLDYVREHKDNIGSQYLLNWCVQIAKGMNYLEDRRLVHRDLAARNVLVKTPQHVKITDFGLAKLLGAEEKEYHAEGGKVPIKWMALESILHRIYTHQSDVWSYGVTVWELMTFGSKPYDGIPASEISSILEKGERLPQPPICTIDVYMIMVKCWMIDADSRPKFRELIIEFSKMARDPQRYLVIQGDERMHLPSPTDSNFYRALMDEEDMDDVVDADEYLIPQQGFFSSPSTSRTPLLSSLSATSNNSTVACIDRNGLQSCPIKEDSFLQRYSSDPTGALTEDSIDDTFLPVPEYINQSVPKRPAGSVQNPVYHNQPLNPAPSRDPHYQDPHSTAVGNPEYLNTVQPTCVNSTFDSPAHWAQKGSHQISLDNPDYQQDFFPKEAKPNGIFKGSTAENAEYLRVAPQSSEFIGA
The test is described as above. It is filed as biochemical.

The next test addresses T12, EGFR (L792F/L858R) (Homo sapiens, UniProt P00533, L792F/L858R).
T12 construct: purchased Reaction Biology
The test is described as above. It is filed as biochemical.

The target of another test is T13, EGFR (L861Q) (Homo sapiens, UniProt P00533, L861Q).
T13 construct: purchased Reaction Biology
T13 sequence (P00533 25-1210 L861Q): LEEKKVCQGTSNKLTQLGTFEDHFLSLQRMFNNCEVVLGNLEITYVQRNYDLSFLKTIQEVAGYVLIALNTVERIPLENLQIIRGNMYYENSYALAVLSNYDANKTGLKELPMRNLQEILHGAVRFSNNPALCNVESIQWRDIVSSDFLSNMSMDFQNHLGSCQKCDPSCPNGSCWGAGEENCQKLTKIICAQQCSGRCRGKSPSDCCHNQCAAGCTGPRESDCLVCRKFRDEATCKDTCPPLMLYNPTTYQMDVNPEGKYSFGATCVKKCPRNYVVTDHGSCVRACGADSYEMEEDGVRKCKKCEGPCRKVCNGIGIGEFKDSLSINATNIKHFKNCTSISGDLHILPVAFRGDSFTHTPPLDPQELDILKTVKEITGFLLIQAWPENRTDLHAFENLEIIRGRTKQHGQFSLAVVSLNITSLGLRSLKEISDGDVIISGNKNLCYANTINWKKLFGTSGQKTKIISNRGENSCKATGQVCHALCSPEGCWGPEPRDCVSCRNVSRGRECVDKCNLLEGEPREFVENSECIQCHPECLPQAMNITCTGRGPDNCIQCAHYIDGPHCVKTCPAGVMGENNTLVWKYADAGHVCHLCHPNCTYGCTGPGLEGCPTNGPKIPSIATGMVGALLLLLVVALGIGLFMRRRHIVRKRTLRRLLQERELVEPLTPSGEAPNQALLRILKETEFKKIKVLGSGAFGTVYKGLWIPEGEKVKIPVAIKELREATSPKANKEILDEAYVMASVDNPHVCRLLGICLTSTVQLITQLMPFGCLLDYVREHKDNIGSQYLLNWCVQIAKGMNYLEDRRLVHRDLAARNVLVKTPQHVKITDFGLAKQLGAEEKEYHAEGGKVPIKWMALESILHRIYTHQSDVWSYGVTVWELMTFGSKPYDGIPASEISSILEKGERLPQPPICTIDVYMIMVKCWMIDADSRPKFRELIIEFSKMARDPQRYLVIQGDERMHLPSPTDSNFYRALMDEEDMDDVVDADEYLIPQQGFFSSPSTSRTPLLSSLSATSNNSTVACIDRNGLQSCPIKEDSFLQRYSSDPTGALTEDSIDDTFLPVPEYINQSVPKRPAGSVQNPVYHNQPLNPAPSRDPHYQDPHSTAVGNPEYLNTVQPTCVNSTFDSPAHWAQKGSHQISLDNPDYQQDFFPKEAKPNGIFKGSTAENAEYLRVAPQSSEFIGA
The test is described as above. Type of test: biochemical.

Another test has as its target T14, ERBB2/HER2 (Homo sapiens, UniProt P04626).
T14 construct: purchased Reaction Biology
The description is as above. It is filed as biochemical.

The target of the next test is T15, ERBB4/HER4 (Homo sapiens, UniProt Q15303).
T15 construct: purchased Reaction Biology
The test is described as above. It is filed as biochemical.

T8 sequence (P00533 25-1210 G719S): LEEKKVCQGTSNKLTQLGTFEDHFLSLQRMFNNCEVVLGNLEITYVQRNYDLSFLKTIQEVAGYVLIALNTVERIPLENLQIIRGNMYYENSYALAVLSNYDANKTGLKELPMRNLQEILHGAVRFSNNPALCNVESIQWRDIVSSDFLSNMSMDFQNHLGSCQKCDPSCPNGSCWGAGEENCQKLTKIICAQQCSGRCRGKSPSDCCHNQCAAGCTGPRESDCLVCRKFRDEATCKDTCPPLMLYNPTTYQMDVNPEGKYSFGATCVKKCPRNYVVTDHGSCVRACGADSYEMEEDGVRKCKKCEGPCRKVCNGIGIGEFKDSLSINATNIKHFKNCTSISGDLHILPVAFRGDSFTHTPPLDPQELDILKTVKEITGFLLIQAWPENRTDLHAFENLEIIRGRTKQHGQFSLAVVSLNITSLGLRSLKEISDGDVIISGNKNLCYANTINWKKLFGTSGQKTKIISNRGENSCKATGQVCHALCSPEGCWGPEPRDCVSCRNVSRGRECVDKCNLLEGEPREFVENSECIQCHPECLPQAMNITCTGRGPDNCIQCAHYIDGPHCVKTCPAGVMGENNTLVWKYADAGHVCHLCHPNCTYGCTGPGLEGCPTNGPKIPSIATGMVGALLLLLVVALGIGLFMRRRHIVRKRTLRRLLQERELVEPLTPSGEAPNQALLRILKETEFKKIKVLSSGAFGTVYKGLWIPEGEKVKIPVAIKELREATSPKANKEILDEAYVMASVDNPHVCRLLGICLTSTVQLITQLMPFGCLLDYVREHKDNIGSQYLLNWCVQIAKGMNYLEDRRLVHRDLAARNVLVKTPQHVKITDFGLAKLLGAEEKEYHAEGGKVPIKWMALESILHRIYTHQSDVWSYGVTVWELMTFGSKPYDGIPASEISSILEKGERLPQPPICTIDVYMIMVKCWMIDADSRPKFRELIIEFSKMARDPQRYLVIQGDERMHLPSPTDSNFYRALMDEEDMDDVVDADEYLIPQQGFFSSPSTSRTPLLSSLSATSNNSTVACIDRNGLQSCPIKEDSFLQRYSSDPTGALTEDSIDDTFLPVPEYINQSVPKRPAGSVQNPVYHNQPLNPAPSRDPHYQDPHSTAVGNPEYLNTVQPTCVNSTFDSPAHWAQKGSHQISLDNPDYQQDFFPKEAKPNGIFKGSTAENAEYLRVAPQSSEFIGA
T2 sequence (P00533 with tags, fused parts or gaps DEL746-750/C797A limits assumed): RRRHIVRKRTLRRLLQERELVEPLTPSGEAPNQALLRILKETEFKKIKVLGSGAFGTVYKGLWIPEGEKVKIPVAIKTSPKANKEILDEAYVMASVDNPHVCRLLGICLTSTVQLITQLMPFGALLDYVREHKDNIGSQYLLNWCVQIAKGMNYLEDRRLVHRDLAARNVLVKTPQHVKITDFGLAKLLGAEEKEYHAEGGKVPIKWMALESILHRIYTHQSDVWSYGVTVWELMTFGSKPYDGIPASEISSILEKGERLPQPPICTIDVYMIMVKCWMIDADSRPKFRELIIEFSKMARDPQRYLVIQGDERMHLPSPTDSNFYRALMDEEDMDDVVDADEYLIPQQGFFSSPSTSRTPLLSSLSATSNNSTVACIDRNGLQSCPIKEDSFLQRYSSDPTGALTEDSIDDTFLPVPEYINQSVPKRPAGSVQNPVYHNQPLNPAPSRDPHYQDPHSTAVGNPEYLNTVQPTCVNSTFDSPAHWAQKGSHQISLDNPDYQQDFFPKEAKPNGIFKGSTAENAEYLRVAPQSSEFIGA

In the case of `COc1cc(Nc2cc(N3OCC[C@@H]3c3ccccc3)ncn2)ccc1N1CCC(N2CCN(C)CC2)CC1` [Example 4, (R)—N-(3-methoxy-4-(4-(4-methylpiperazin-1-yl)piperidin-1-yl)phenyl)-6-(3-phenylisoxazolidin-2-yl)pyrimidin-4-amine], the GI50 in test [1] was < 50 nM; in test [2] it was < 50 nM; in test [3], < 50 nM; in test [4], < 50 nM; in [5] it was 50 to 500 nM.

Regarding `COc1cc(N2CCC(N3CCN(C)CC3)CC2)ccc1Nc1cc(N2OCC[C@@H]2c2ccc(F)cc2F)ncn1` [Example 34, (R)-6-(3-(2,4-difluorophenyl)isoxazolidin-2-yl)-N-(2-methoxy-4-(4-(4-methylpiperazin-1-yl)piperidin-1-yl)phenyl)pyrimidin-4-amine], the GI50 in test [1] was < 50 nM; in test [3] it was < 50 nM; in test [4], 50 to 500 nM; in test [5] it was 50 to 500 nM; in test [6], 50 to 500 nM; in test [7], < 50 nM. Further, the concentration for half-maximal inhibition (IC50) is 8 nM against EGFR (d746-750); 3.5 nM against EGFR (d746-750/C797A); < 0.5 nM against EGFR (d746-750/C797S); 60.5 nM in test [8]; < 0.5 nM on EGFR (D761Y); 0.5 nM on EGFR (G719C). Further, the IC50 on EGFR (G719D) was < 0.5 nM; against EGFR (G719S), 2.7 nM; at EGFR (L718Q), 49.8 nM; on EGFR (L747S) it was < 0.5 nM; on EGFR (L792F) it was 8.7 nM; on EGFR (L792F/L858R) it was 78.1 nM. Further, the results for the IC50 on EGFR (L861Q), on ERBB2/HER2 and at ERBB4/HER4 were < 0.5 nM, 5.3 nM and 41.7 nM, respectively.

Consider `COc1cc(Nc2cc(N3OCC[C@@H]3c3cccc(F)c3F)ncn2)ccc1N1CCC(N2CCN(C)CC2)CC1` [Example 128, (R)-6-(3-(2,3-difluorophenyl)isoxazolidin-2-yl)-N-(3-methoxy-4-(4-(4-methylpiperazin-1-yl)piperidin-1-yl)phenyl)pyrimidin-4-amine], for which the GI50 in test [1] and in test [2] was < 50 nM in each case.

On to `COc1cc(N2CCC(N3CCN(C)CC3)CC2)ccc1Nc1cc(N2OCC[C@@H]2c2ccc(Cl)c(F)c2)ncn1` [Example 129, (R)-6-(3-(4-chloro-3-fluorophenyl)isoxazolidin-2-yl)-N-(2-methoxy-4-(4-(4-methylpiperazin-1-yl)piperidin-1-yl)phenyl)pyrimidin-4-amine], for which the GI50 in test [1] and in test [2] was < 50 nM in each case.

As to `COc1cc(N2CCC(N3CCN(C)CC3)CC2)c(Cl)cc1Nc1cc(N2OCC[C@@H]2c2ccccc2)ncn1` [Example 132, (R)—N-(5-chloro-2-methoxy-4-(4-(4-methylpiperazin-1-yl)piperidin-1-yl)phenyl)-6-(3-phenylisoxazolidin-2-yl)pyrimidin-4-amine], the 50% growth inhibitory concentration (GI50) in test [1] and in [2] was < 50 nM throughout.
